PubChem BioAssay (NCI)
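Test compounds were applied to cells in 96-well plates for 48 hours at 5 doses. Here, GI50 denotes the concentration required for 50% inhibition of growth. TGI denotes the concentration required for complete inhibition of growth.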

Tests used:
Test in all cases: inhibition of tumour cell growth, NCI panel, 48 h
COLO 205 colon = tested on: COLO 205 colon
DMS 114 small cell lung = tested on: DMS 114 small cell lung
SF-295 CNS = tested on: SF-295 CNS
SNB-75 CNS = tested on: SNB-75 CNS
SNB-78 CNS = tested on: SNB-78 CNS
TK-10 renal = tested on: TK-10 renal
UACC-257 melanoma = tested on: UACC-257 melanoma
EKVX NSCLC = tested on: EKVX NSCLC
NCI-H522 lung = tested on: NCI-H522 lung
CAKI-1 renal = tested on: CAKI-1 renal

SMILES | TGI (COLO 205 colon) [µM] | TGI (DMS 114 small cell lung) [µM] | TGI (SF-295 CNS) [µM] | TGI (SNB-75 CNS) [µM] | TGI (SNB-78 CNS) [µM] | TGI (TK-10 renal) [µM] | TGI (UACC-257 melanoma) [µM] | TGI (EKVX NSCLC) [µM] | TGI (NCI-H522 lung) [µM] | TGI (CAKI-1 renal) [µM] | GI50 (CAKI-1 renal) [µM] | GI50 (COLO 205 colon) [µM] | GI50 (EKVX NSCLC) [µM] | GI50 (NCI-H522 lung) [µM] | GI50 (SF-295 CNS) [µM] | GI50 (SNB-75 CNS) [µM] | GI50 (TK-10 renal) [µM] | GI50 (UACC-257 melanoma) [µM] | GI50 (DMS 114 small cell lung) [µM] | GI50 (SNB-78 CNS) [µM]
CN(C)CCNc1nc(-c2cccs2)cc(-c2cccs2)n1 | 27.9 | 33.6 | 28.2 | 68.2 | 34.1 | 29 | 24.2 |  |  |  |  |  |  |  |  |  |  |  |  | 
C#CCN(C)C(=O)N(CC#C)N=O | > 100 | > 100 | > 100 | > 100 | > 100 | > 100 | > 100 | > 100 | > 100 |  |  |  |  |  |  |  |  |  |  | 
COc1ccc2c(c1)OCCC1=C2SCC2(C)CCN=C12 (centres undefined) | > 100 | > 100 | > 100 | > 100 | > 100 | > 100 |  |  | > 100 |  |  |  |  |  |  |  |  |  |  | 
Cn1cc(NC(=O)c2cc(NC(=O)CCCCCCC(=O)Nc3cc(C(=O)Nc4cc(C(=O)NCCC(=N)N)n(C)c4)n(C)c3)cn2C)cc1C(=O)NCCC(=N)N | 18.9 | 5.44 | > 100 | 38.6 | 69.5 | 72.9 | 5.98 | > 100 |  | 89.7 |  |  |  |  |  |  |  |  |  | 
Nc1nc(N)c(-c2ccccc2)c(CCC(=O)Nc2ccc(Cl)cc2)n1 | > 100 |  | > 100 | > 100 | > 100 | > 100 | > 100 | > 100 | > 100 | > 100 |  |  |  |  |  |  |  |  |  | 
C=CCCC(=O)N1C=CC(=O)[C@H](O)[C@@H]1/C=C/c1ccccc1 | > 32.5 |  | > 32.5 | > 32.5 |  | > 32.5 | > 32.5 | > 32.5 | > 32.5 | > 32.5 | 25.1 | 10.9 | 7.63 | > 32.5 | 10.7 | 27.4 | 21.5 | 18 |  | 
CCOC(=O)/N=c1/nc(N(C)C)ss1 |  | > 100 | > 100 | > 100 | > 100 | > 100 | > 100 | > 100 | > 100 | > 100 |  |  |  |  |  |  |  |  |  | 
O=C(Nc1cc(-c2cccnc2)nc(NCCCN2CCOCC2)n1)c1cc(Br)cc(C(F)(F)F)c1 | 3.47 |  | 3.93 | 3.59 |  | 18.1 | 3.78 | 14.4 | 5.31 | 10.7 | 2.53 | 1.77 | 2.72 | 1.95 | 1.94 | 1.52 | 5.07 | 2.1 |  | 
OC(COc1cccc2ccccc12)CN1CCN(c2ccccc2Cl)CC1 (centres undefined) | 25 |  | 26.9 | 24.7 |  | 17.1 | 31 | 31.7 | 25.1 | 22.7 | 7.23 | 11.9 | 12.9 | 10.6 | 11.9 | 11.2 | 5.58 | 16.5 |  | 
CCOC(=O)Cc1csc(NC(=O)COC(=O)c2ccc(OC)cc2)n1 | > 100 |  | > 100 | > 56.6 |  | > 100 | > 100 | > 100 | 38.5 | > 100 | > 100 | > 95.9 | 52.9 | 19.6 | > 100 | 28.3 | > 100 | > 100 |  | 
CC1(C)[C@@H](OC(N)=O)C=C[C@]2(C=O)[C@H]3CC[C@]4(C)[C@@H](c5ccc(=O)oc5)[C@@H](Cl)C[C@]4(O)C3=CC[C@@H]12 | 0.0178 |  | 0.0111 | 0.00932 |  | 0.0157 | 0.0141 | 0.0102 | 0.00573 | 0.00846 | 0.00446 | 0.00685 | 0.00415 | < 0.0025 | 0.00502 | 0.00407 | 0.00527 | 0.00565 |  | 
O=C(NCCCCOCC#Cc1ccccc1C#CCS(=O)(=O)c1ccccc1)c1cc2ccccc2[nH]1 | 28.1 |  | > 44.7 | 27.3 |  | > 50 | > 50 | > 50 | 16.4 | > 38.2 | 14.9 | 10.9 | 22.5 | 7.79 | 15.9 | 12.5 | 23.5 | 22.4 |  | 
Cn1ncc(-c2ccc3c(=O)[nH]nc(CN)c3c2)c1-c1c(F)cc2ccccc2c1C#N | 18.3 |  | 24.6 | 19.5 |  | 24.1 | 20.8 | 25.1 | 17.7 | 19 | 5.53 | 4.8 | 11.9 | 4.17 | 11.7 | 4.44 | 10.7 | 7.28 |  | 
N#C/C(=C\c1ccccc1Br)C(=O)c1ccccc1 | > 100 | > 100 | > 87.5 |  | > 100 | > 100 | > 100 | > 100 | > 100 | > 100 |  |  |  |  |  |  |  |  |  | 
Cn1ccnc1C[N-]Cc1nccn1C.O=[N+]([O-])[O-].O=[N+]([O-])[O-].[Cu+2] | > 100 | > 100 | > 100 | > 100 | > 100 | > 100 |  | > 100 | > 100 |  |  | > 100 | > 100 | > 100 | > 100 | > 100 | > 100 |  | > 100 | > 100
CC[C@H](NC(=O)[C@H](CS(=O)(=O)CC1CC1)N[C@@H](c1ccc(F)cc1)C(F)(F)F)C(=O)C(=O)NC1CC1 | > 100 |  | > 100 | > 100 |  | > 100 | > 100 | > 100 | > 100 | > 100 | > 100 | > 100 | 90.3 | > 100 | > 100 | > 100 | > 100 | > 100 |  | 
CCOC(=O)/C(C#N)=C/Nc1ccc(-c2nc3ccccc3[nH]2)cc1 | > 100 |  | 76.8 | 56.7 |  | 54.2 | > 100 | > 100 | > 100 | 74.1 | 26.6 | 28.8 | 34.4 | 24 | 27.4 | 24.2 | 16.8 | 62.1 |  | 
